US20250228863A1, “Methods and Products to Screen and Treat Glioblastoma Multiforme and Other Cancers, Including Breast Cancers, Using A Combination of PI3KINASE Inhibitors With Checkpoint Inhibitors” (GLOBAL CANCER TECHNOLOGY, INC., priority 2022, published 2025)

Legend:
MCF7 SEMA7A OE cells = assay: MCF7 EV and SEMA7A over-expressing cells treated with endocrine therapy and/or PI3K inhibitor; format: cell-based, human
Protocol: Cell Culture Protocol: Cells were plated in 10 cm plates at ˜1 million cells/plate and incubated overnight to allow adherence. Cell lines and media that were used included McCoy's 5a modified media for HER2+ breast cancer cell line SKBR3 cells, and for MDA-MB-231, MDA-MB-468, MCF-7, and HS578t, culture medium was DMEM. Cells were then treated with the PI3K inhibitor: 0 uM (control), 1 uM, or 10 uM. Treated cells incubated for ˜72 hours. After incubation, cells were imaged, then harvested with 0.25% trypsin/EDTA and counted using trypan blue viability stain with Nexcelom Cellometer Mini. The MDA-MB-231 cell line is an epithelial, human breast cancer cell line that was established from a pleural effusion of a patient with metastatic mammary adenocarcinoma.
FIG. 13A, FIG. 13B, and FIG. 13C. […] MCF7EV and SEMA7A OE cells were treated for 48 hours with A) fulvestrant (7.5 nM), B} Alpelisib (1 uM), or C) the combination.
FIG. 14A, FIG. 14B, FIG. 14C, FIG. 14D, and FIG. 14E. SEMA7A-expressing cells are sensitive to both Alpelisib and a novel PI3K inhibitor (GCT.BR.1) FIG. 14A) MCF7 cells treated with vehicle, 1 uM Alpelisib and 1 uM GCT.BR.1. Scalebar=10 microns. FIG. 14B) Quantification of A. FIG. 14C) MCF7 S7 OE spheroids in suspension were treated with vehicle (DMSO), 1 uM Alpelisib or 0.5 uM GCT and stained with Calcein green viability dye after 48 h. […]

[1] = orally available; literature statement; cited from earlier work

Cc1nc(NC(=O)N2CCC[C@H]2C(N)=O)sc1-c1ccnc(C(C)(C)C(F)(F)F)c1 [Alpelisib]
sensitivity of SEMA7A-expressing cells (MCF7 SEMA7A OE cells; MCF7, 1 uM, FIG. 14): sensitive

CC1(C)OCCn2c1nc1c(N3CCOCC3)nc(-c3cnc(N)nc3)nc12 [GDC 0084]
blood brain barrier permeation [1]: can permeate the blood brain barrier

C[C@]12CC[C@@H]3c4ccc(O)cc4C[C@@H](CCCCCCCCC[S+]([O-])CCCC(F)(F)C(F)(F)F)[C@H]3[C@@H]1CC[C@@H]2O (stereo partly drawn) [fulvestrant]
response of SEMA7A over-expressing cells to treatment (MCF7 SEMA7A OE cells; 48 hours, fulvestrant 7.5 nM, Alpelisib 1 uM, FIG. 13): respond poorly
